Measured values taken from ChEMBL document CHEMBL1134837, “A conformational and structure-activity relationship study of cytotoxic 3,5-bis(arylidene)-4-piperidones and related N-acryloyl analogues” (J Med Chem, 2001).
“And” between values parts separate entries of the source, which are not always exact repeats. Equal entries are not always repeated.

How the values were obtained:
Jurkat [1] = experiment: Inhibitory effect on the biosyntheses of RNA using human Jurkat T cells.; type: functional
[2] = The apoptotic index [(number of human jurkat cells with apoptotic nuclei/number of cells counted) 100]; type: functional
P388 = experiment: Cytotoxicity against murine P388 cells.; type: functional, cell-based; settings: Mus musculus
L1210 [3] = experiment: Cytotoxicity against murine L1210 cells.; type: functional, cell-based; settings: Mus musculus
[4] = Cytotoxicity against human Molt 4/C8 cells.; type: functional, cell-based; settings: Molt4/C8
Jurkat [5] = experiment: (§1) Cytotoxicity against human Jurkat T cells.; type: functional
CCRF-CEM = experiment: Cytotoxicity against CEM T-lymphocytes.; type: functional, cell-based; settings: Homo sapiens
Jurkat [6] = experiment: as §1; type: functional, cell-based
[7] = Average potency of all four cell lines (P388 cell line, L1210 cell line, Molt 4/C8 cell line, CEM T-lymphocytes); type: functional; design: unit not given here
L1210 [8] = experiment: Inhibitory effect on the biosyntheses of DNA in murine L1210 cells.; type: functional, cell-based; settings: Mus musculus
L1210 [9] = experiment: Inhibitory effect on the biosyntheses of protein in murine L1210 cells.; type: functional, cell-based; settings: Mus musculus
L1210 [10] = experiment: Inhibitory effect on the biosyntheses of RNA in murine L1210 cells.; type: functional, cell-based; settings: Mus musculus
Jurkat [11] = experiment: Inhibitory effect on the biosyntheses of protein using human Jurkat T cells.; type: functional

Row | SMILES | Inhibition (Jurkat [1]) | Apoptotic index [2] | IC50 (P388) | IC50 (L1210 [3]) | IC50 [4] | IC80 (Jurkat [5]) | IC50 (CCRF-CEM) | IC50 (Jurkat [6]) | AP [7] | IC50 (L1210 [8]) | IC50 (L1210 [9]) | IC50 (L1210 [10]) | Inhibition (Jurkat [11])
1 | O=C1/C(=C/c2ccc(Cl)c(Cl)c2)CNC/C1=C\c1ccc(Cl)c(Cl)c1 | 26.4% and 31.1% | 48.3 | 1010 nM | 129000 nM | 40200 nM | 4830 nM | 20800 nM | 3090 nM | 47.8 |  |  |  | 
2 | C=CC(=O)N1C/C(=C\c2ccc(Cl)cc2)C(=O)/C(=C/c2ccc(Cl)cc2)C1 |  |  | 150 nM | 1960 nM | 440 nM |  | 490 nM |  | 0.76 |  |  |  | 
3 | C=CC(=O)N1C/C(=C\c2ccc(OC)cc2)C(=O)/C(=C/c2ccc(OC)cc2)C1 |  |  | 680 nM | 11800 nM | 2270 nM |  | 2670 nM |  | 4.36 |  |  |  | 
4 | O=C1/C(=C/c2ccccc2)CNC/C1=C\c1ccccc1 |  |  | 770 nM |  |  |  |  |  | 3.03 |  |  |  | 
5 | O=C1/C(=C/c2ccc(N3CC3)cc2)CNC/C1=C\c1ccc(N2CC2)cc1 |  |  | 640 nM | 240000 nM | 226000 nM |  | 162000 nM |  | 157 | > 500000 nM | 320000 nM | 336000 nM | 
6 | C=CC(=O)N1C/C(=C\c2ccccc2)C(=O)/C(=C/c2ccccc2)C1 |  |  | 500 nM | 8690 nM | 1420 nM |  | 1480 nM |  | 3.3 |  |  |  | 
7 | C=CC(=O)N1C/C(=C\c2ccc(Cl)c(Cl)c2)C(=O)/C(=C/c2ccc(Cl)c(Cl)c2)C1 | 67.6% | 63.5 | 50 nM | 1520 nM | 1040 nM | 940 nM | 1080 nM | 580 nM | 0.92 |  |  |  | 58.1%
8 | O=C1/C(=C/c2ccc([N+](=O)[O-])cc2)CNC/C1=C\c1ccc([N+](=O)[O-])cc1 |  |  | 200 nM | 32900 nM | 8280 nM |  | 4470 nM |  | 11.5 | 228000 nM | 214000 nM | 276000 nM | 
9 | N[C@@H](Cc1ccc(N(CCCl)CCCl)cc1)C(=O)O | 85.1% |  |  |  |  |  |  |  | 2.02 | > 100000 nM | 94600 nM | > 100000 nM | 17.3%
10 | COc1ccc(/C=C2\CNC/C(=C\c3ccc(OC)cc3)C2=O)cc1 |  |  | 1540 nM |  |  |  |  |  | 174 |  |  |  | 
11 | C=CC(=O)N1C/C(=C\c2ccc([N+](=O)[O-])cc2)C(=O)/C(=C/c2ccc([N+](=O)[O-])cc2)C1 |  |  | 50 nM | 420 nM | 150 nM |  | 260 nM |  | 0.22 | 2770 nM | 3210 nM | 5730 nM | 
12 | O=C1/C(=C/c2ccc(Cl)cc2)CNC/C1=C\c1ccc(Cl)cc1 |  |  | 740 nM |  |  |  |  |  | 16.1 |  |  |  | 
13 | C=CC(=O)N1C/C(=C\c2ccc(F)cc2)C(=O)/C(=C/c2ccc(F)cc2)C1 |  |  | 270 nM | 3890 nM | 410 nM |  | 800 nM |  | 1.34 |  |  |  | 
14 | O=C1/C(=C/c2ccc(F)cc2)CNC/C1=C\c1ccc(F)cc1 |  |  | 600 nM |  |  |  |  |  | 11 |  |  |  | 
15 | C=CC(=O)N1C/C(=C\c2ccc(N3CC3)cc2)C(=O)/C(=C/c2ccc(N3CC3)cc2)C1 |  |  | 43300 nM | > 500000 nM | 369000 nM |  | > 500000 nM |  | >353 |  |  |  | 
